The source made the active and inactive calls. The calls are words filed in the database; no cut-off is given here.
Experiments:
[1] = Effect on 2 Hz electrically driven contractile tension in WKY rat right ventricle at 10 uM relative to control; format: functional, Heart right ventricle
[2] = system: Left cardiac atrium; test: Effect on 2 Hz electrically driven contractile tension in WKY rat left atria at 1 uM relative to control; format: functional
[3] = system: Heart; test: Antiarrhythmic activity against ouabain-induced arrhythmia in guinea pig right atria assessed as reversal of cardiac arrhythmia to normal rhythm at 10 uM; format: functional, tissue-based; conditions: Cavia porcellus
[4] = system: Right cardiac atrium; test: Effect on spontaneous contractile tension in WKY rat right atria at 3 uM relative to control
[5] = Effect on 2 Hz electrically driven contractile tension in WKY rat right ventricle at 1 uM relative to control; format: functional, Heart right ventricle
[6] = system: Heart; test: Antiarrhythmic activity against ouabain-induced arrhythmia in guinea pig right ventricle assessed as reversal of cardiac arrhythmia to normal rhythm at 10 uM; format: functional, tissue-based; conditions: Cavia porcellus
[7] = system: Right cardiac atrium; test: Effect on spontaneous contractile tension in WKY rat right atria at 1 uM relative to control
[8] = system: Heart; test: Effect on spontaneously beating heart rate in WKY rat right atria at 0.3 uM relative to control
[9] = system: Heart; test: Effect on spontaneously beating heart rate in WKY rat right atria at 1 uM relative to control
[10] = Effect on 2 Hz electrically driven contractile tension in WKY rat right ventricle at 3 uM relative to control; format: functional, Heart right ventricle
[11] = system: Heart; test: Effect on spontaneously beating heart rate in WKY rat right atria at 30 uM relative to control
[12] = Effect on 2 Hz electrically driven contractile tension in WKY rat right ventricle at 30 uM relative to control; format: functional, Heart right ventricle
[13] = Effect on 2 Hz electrically driven contractile tension in WKY rat right ventricle at 0.3 uM relative to control; format: functional, Heart right ventricle
[14] = system: Right cardiac atrium; test: Effect on spontaneous contractile tension in WKY rat right atria at 10 uM relative to control
[15] = system: Left cardiac atrium; test: Effect on 2 Hz electrically driven contractile tension in WKY rat left atria at 30 uM relative to control; format: functional
[16] = system: Heart; test: Antiarrhythmic activity against ouabain-induced arrhythmia in guinea pig right ventricle assessed as reversal of cardiac arrhythmia to normal rhythm at 1 uM; format: functional, tissue-based; conditions: Cavia porcellus
[17] = system: Left cardiac atrium; test: Effect on 2 Hz electrically driven contractile tension in WKY rat left atria at 10 uM relative to control; format: functional
[18] = system: Heart; test: Effect on spontaneously beating heart rate in WKY rat right atria at 3 uM relative to control
[19] = system: Heart; test: Antiarrhythmic activity against ouabain-induced arrhythmia in guinea pig right ventricle assessed as reversal of cardiac arrhythmia to normal rhythm at 3 uM; format: functional, tissue-based; conditions: Cavia porcellus
[20] = system: Right cardiac atrium; test: Effect on spontaneous contractile tension in WKY rat right atria at 0.3 uM relative to control
[21] = system: Left cardiac atrium; test: Effect on 2 Hz electrically driven contractile tension in WKY rat left atria at 3 uM relative to control; format: functional
[22] = system: Heart; test: Effect on spontaneously beating heart rate in WKY rat right atria at 10 uM relative to control
[23] = system: Left cardiac atrium; test: Effect on 2 Hz electrically driven contractile tension in WKY rat left atria at 0.3 uM relative to control; format: functional
[24] = system: Right cardiac atrium; test: Effect on spontaneous contractile tension in WKY rat right atria at 30 uM relative to control
[25] = system: Heart; test: Antiarrhythmic activity against ouabain-induced arrhythmia in guinea pig left atria assessed as reversal of cardiac arrhythmia to normal rhythm at 3 uM; format: functional, tissue-based; conditions: Cavia porcellus
[26] = system: Heart; test: Antiarrhythmic activity against ouabain-induced arrhythmia in guinea pig left atria assessed as reversal of cardiac arrhythmia to normal rhythm at 1 uM; format: functional, tissue-based; conditions: Cavia porcellus
[27] = system: Heart; test: Antiarrhythmic activity against ouabain-induced arrhythmia in guinea pig right ventricle assessed as reversal of cardiac arrhythmia to normal rhythm at 30 uM; format: functional, tissue-based; conditions: Cavia porcellus
[28] = system: Heart; test: Antiarrhythmic activity against ouabain-induced arrhythmia in guinea pig right atria assessed as reversal of cardiac arrhythmia to normal rhythm at 3 uM; format: functional, tissue-based; conditions: Cavia porcellus
[29] = system: Heart; test: Antiarrhythmic activity against ouabain-induced arrhythmia in guinea pig right atria assessed as reversal of cardiac arrhythmia to normal rhythm at 1 uM; format: functional, tissue-based; conditions: Cavia porcellus
[30] = system: Heart; test: Antiarrhythmic activity against ouabain-induced arrhythmia in guinea pig right atria assessed as reversal of cardiac arrhythmia to normal rhythm at 30 uM; format: functional, tissue-based; conditions: Cavia porcellus

With `CCCCO[C@@H](c1ccc(O)c(O)c1)[C@H](CC#Cc1ccc(O)c(O)c1)O[C@@H]1O[C@H](CO)[C@@H](O)[C@H](O)[C@H]1O` the Activity [1] was 96.8%, the Activity [2] was 95.3% and the Activity [3] was “inactive”. For the same molecule, the Activity [4] was 91.6%, the Activity [5] was 100% and the Activity [6] was “inactive”. The Activity [7] was 94.3%, the Activity [8] was 100% and the Activity [9] was 99%. For the same molecule, the Activity [10] was 100.4%, the Activity [11] was 97.4% and the Activity [12] was 92.2%. The Activity [13] was 102%, the Activity [14] was 87.8% and the Activity [15] was 103.8%. For the same molecule, the Activity [16] was “inactive”, the Activity [17] was 105% and the Activity [18] was 98.4%. For the same molecule, the Activity [19] was “inactive”, the Activity [20] was 95.5% and the Activity [21] was 101.1%. The Activity [22] was 98.4%, the Activity [23] was 98.8% and the Activity [24] was 86.4%.

Work on `OC[C@H]1O[C@@H](O[C@@H](CC#Cc2ccc(O)c(O)c2)[C@H](O)c2ccc(O)c(O)c2)[C@H](O)[C@@H](O)[C@@H]1O` [NYASICOSIDE] yielded an Activity [1] of 78.2%, an Activity [2] of 105.8% and an Activity [4] of 92%. It also gave an Activity [5] of 84.8%, an Activity [7] of 94.5% and an Activity [8] of 100%. It also gave an Activity [9] of 98.8%, an Activity [10] of 83.6% and an Activity [11] of 98.5%. For the same molecule, the Activity [12] was 74.6%, the Activity [25] was “Active” and the Activity [13] was 92.3%. For the same molecule, the Activity [14] was 83.3%, the Activity [15] was 98% and the Activity [16] was “inactive”. For the same molecule, the Activity [17] was 100.3%, the Activity [18] was 97.4% and the Activity [19] was “inactive”. For the same molecule, the Activity [20] was 96.8%, the Activity [21] was 104.5% and the Activity [22] was 98.5%. The Activity [23] was 108.3%, the Activity [24] was 78% and the Activity [26] was “inactive”.

For `OC[C@H]1O[C@@H](O[C@@H](CC#Cc2ccc(O)cc2)[C@H](O)c2ccc(O)c(O)c2)[C@H](O)[C@@H](O)[C@@H]1O`, the Activity [1] was 95.2%, the Activity [2] was 106.8% and the Activity [27] was “inactive”. The Activity [28] was “inactive”, the Activity [3] was “inactive” and the Activity [4] was 98.3%. The Activity [5] was 98.4%, the Activity [6] was “inactive” and the Activity [7] was 97.5%. For the same molecule, the Activity [8] was 100%, the Activity [9] was 97.5% and the Activity [29] was “inactive”. The Activity [10] was 99.2%, the Activity [11] was 98.5% and the Activity [12] was 94.2%. For the same molecule, the Activity [14] was 94.5%, the Activity [15] was 116.3% and the Activity [16] was “inactive”. The Activity [17] was 119.3%, the Activity [18] was 97.5% and the Activity [19] was “inactive”. The Activity [21] was 111.5%, the Activity [22] was 98.5% and the Activity [24] was 94.8%. The Activity [30] was “inactive”.

`CO[C@H](c1ccc(O)c(O)c1)[C@H](CC#Cc1ccc(O)c(O)c1)O[C@@H]1O[C@H](CO)[C@@H](O)[C@H](O)[C@H]1O` gave an Activity [1] of 104.3%, an Activity [2] of 103% and an Activity [4] of 99%. The Activity [5] was 106.7%, the Activity [7] was 99% and the Activity [9] was 100%. For the same molecule, the Activity [10] was 106.3%, the Activity [11] was 103% and the Activity [12] was 99.3%. The Activity [25] was “inactive”, the Activity [14] was 100.3% and the Activity [15] was 89.7%. The Activity [16] was “inactive”, the Activity [17] was 102.3% and the Activity [18] was 103%. It also gave an Activity [21] of 101.3%, an Activity [22] of 103% and an Activity [24] of 101.7%.

In the case of `CCCCO[C@H](c1ccc(O)c(O)c1)[C@H](CC#Cc1ccc(O)c(O)c1)O[C@@H]1O[C@H](CO)[C@@H](O)[C@H](O)[C@H]1O`, the Activity [1] is reported as 95.4%, the Activity [2] is reported as 96% and the Activity [4] is reported as 89.6%. For the same molecule, the Activity [5] was 95.8%, the Activity [7] was 91% and the Activity [8] was 100%. The Activity [9] was 100%, the Activity [10] was 96.8% and the Activity [11] was 97.6%. The Activity [12] was 88.2%, the Activity [25] was “Active” and the Activity [13] was 99%. The Activity [14] was 86.2%, the Activity [15] was 92.5% and the Activity [16] was “inactive”. The Activity [17] was 89.4%, the Activity [18] was 99% and the Activity [20] was 94%. It also gave an Activity [21] of 91.2%, an Activity [22] of 99.8% and an Activity [23] of 98.8%. It also gave an Activity [24] of 83.6%.

Reference: ChEMBL document CHEMBL1145680, “Bioactive Norlignan Glucosides from Curculigo capitulata” (1997)
